Where two headings read alike, the source gives them in different places.
Legend:
[1] = Blood concentrations after oral administration of Crude extract I to rats; assay type: in vivo, rat
Protocol: One drop of Tween 80 was added to the crude extract (0.05 g) obtained in Example 1, which was suspended in 5-ml of water for injection. This suspension was administered to 5-week old rats (Crj:CD(SD) IGS, SPF, male) using a sonde by forced oral administration at a dose of 5 ml/kg body weight (n=2). Blood was taken from the orbital venous plexus of each rat at 0.5, 1, 2, 4, 8, 24 hours post administration and serum was recovered by centrifugation. Then, the concentrations of conophylline and conophyllidine in the blood were measured (Table 7) by the same method as in Example 8. As the control, water for injection containing one drop of Tween80 was administered orally at a dose of 5 ml/kg body weight (n=2) and the blood concentrations were measured in the same manner.

[2] = tested on: model animals of neonatal diabetes; conditions: intraperitoneally administered; cited from earlier work
[3] = Crude extract II absorption test in GK rats; assay type: in vivo, rat; conditions: Crude extract II 4.3 or 13 mg/kg, 1.5-24 h
Protocol: Sixteen 10-week old GK rats were divided into four groups (n=4 per group). Two groups (the fasted groups) were fasted for 16 hours, and the remaining two groups (the fed groups) were allowed ad libitum access to chow and water. The fed groups received Crude extract II (containing Tween 80) at 4.3 mg/kg or 13 mg/kg. Blood was taken at 1.5, 3, 6, 12, and 24 hours post administration and plasma conophylline concentration was measured. Likewise, the fasted groups also received Crude extract II and plasma conophylline concentration was measured.

[4] = Blood concentrations after oral administration of acetic acid extract or dried pulverized leaves to healthy rats; assay type: in vivo, rat
Protocol: Dried leaves of Tabernaemontana divaricata were pulverized with a home mill, 1 g of the pulverized product was homogenized in 20 ml of 0.3 M acetic acid solution, and the active ingredient was extracted by stirring at 50° C. for 30 min. The supernatant was recovered by centrifugation and concentrated to dryness to obtain 0.3 g of powder (acetic acid extract). This powder contained conophylline and conophyllidine at 1.0 mg/g and 0.8 mg/g, respectively.
Further, 1 g of pulverized leaves was homogenized in 20 ml of distilled water and then concentrated to dryness to obtain 1 g of product (dried pulverized leaves). The amounts of the active ingredients of conophylline and conophyllidine were 0.40 mg/g and 0.35 mg/g, respectively.
Next, 0.2 g of the acetic acid extract and 0.5 g of the dried pulverized leaves were separately suspended in 5 ml of water for injection. These suspensions were administered to 5-week old healthy rats (Crj:CD (SD) IGS, SPF, male) using a sonde by forced oral administration at a dose of 5 ml/kg body weight (n=2 per suspension). Blood was taken from the orbital venous plexus of each rat before oral administration, 1.5, 3, 6, 12, and 24 hours post administration and serum was recovered by centrifugation. The concentrations of conophylline and conophyllidine in the blood were measured by precipitating protein by addition of 2 volumes of acetonitrile to the serum followed by HPLC analysis of the supernatant (Table 6).

[5] = Concentration dissolved after neutralization with pectin or sodium polyacrylate (partially purified by reversed phase column); assay type: physicochemical; conditions: for concentration in solution: Control: not neutralized
Protocol: Crude extract I (250 mg) obtained in Example 1 was dissolved in 5 ml of ethanol. Water was added to this solution in a total volume of 50 ml, which was passed through a glass column packed with about 5 ml of ODS resin (DM1020T, manufactured by Fuji Silysia Chemical Ltd.). After unadsorbed matter was removed by washing the column with 10 ml of distilled water, the adsorbed component was eluted with 10 ml of ethanol. Then, after the solvent was removed by centrifugal concentration, the concentrate was dissolved in 5 ml of 0.1 N hydrochloric acid and the solution was dispensed in 0.5 ml aliquots into test tubes. Then, 10 μl, 100 μl, or 1000 μl of a 0.2% aqueous solution of pectin or 0.2% aqueous solution of sodium polyacrylate was added to the aliquots. The solutions were treated in the same way as in Example 11 and the concentrations of conophylline and conophyllidine in the supernatants were measured.

[6] = Solubility in distilled water or 1% SDS; assay type: physicochemical
Protocol: 10 mg of weighed Crude extract I obtained in Example 1 was added to 1 ml of distilled water or 1 ml of 1% sodium dodecyl sulfate (SDS) aqueous solution and was stirred vigorously. The solution was centrifuged at 5,000×g for 2 min and the concentrations of conophylline and conophyllidine in the supernatant were measured.

[7] = Storing stability of water-soluble composition extracted with citric acid; assay type: physicochemical; conditions: dried composition
Protocol: 0.1 M citric acid was added to the pulverized product of the dried leaves obtained by the same method as in Example 2, and stirred at 60° C. After insoluble matter was filtered off, the solution was neutralized to pH 6.0 with 0.1 N sodium hydroxide, dispensed in 1 ml aliquots into test tubes, and concentrated to dryness by centrifugation.
First, 1 ml of 50% ethanol was added to one of the test tubes to dissolve solid content. The solution was filtered through a 0.2 μm membrane filter, and then conophylline and conophyllidine were analyzed by HPLC.
Next, the remaining test tubes were divided into five groups, each of which being stored at −30° C. (shielded from light), 4° C. (shielded from light), 4° C. (not shielded from light), 30° C. (shielded from light), and 50° C. (shielded from light). After a lapse of a certain period of time, the composition was dissolved by addition of 50% ethanol, filtered, and analyzed by HPLC.

[8] = male, Crj:CD(SD) IGS, rat, in vivo, po, blood concentration
[9] = pH 6.0, Sodium polyacrylate 10 μg/ml
[10] = pH 6.0, Sodium polyacrylate 100 μg/ml

SMILES: CC[C@@]12CC(C(=O)OC)=C3Nc4cc5c(cc4[C@@]34CCN(C[C@H]3O[C@H]31)[C@@H]24)[C@@H]1[C@H](O5)[C@@H](O)[C@@]2(CC)CC(C(=O)OC)=C3Nc4c(cc(O)c(OC)c4OC)[C@@]34CCN1[C@@H]24 [Conophylline, conophylline]
- blood concentration ([1]; male, Crj:CD(SD) IGS, rat, in vivo, po, 0.5 h): 398 ng/mL
- blood concentration ([1]; male, Crj:CD(SD) IGS, rat, in vivo, po, 1 h): 472 ng/mL
- blood concentration ([1]; male, Crj:CD(SD) IGS, rat, in vivo, po, 24 h): 108 ng/mL
- concentration at 0.5 h [1, 8]: 332 ng/mL
- concentration at 1 h [1, 8]: 270 ng/mL
- concentration at 24 h [1, 8]: 90 ng/mL
- blood glucose levels [2]: significantly suppressing increased blood glucose levels
- blood (plasma) conophylline concentration, fasted vs fed groups [3]: slightly higher in the fasted groups, but no significant difference
- time at which blood concentration reached its maximum ([4]; male, Crj:CD (SD) IGS, rat, in vivo, po): 1.5 h
- concentration in solution [5]: 11280 ng/mL
- concentration in supernatant after neutralization ([5]; pH 6.0, Pectin 10 μg/ml): 270 ng/mL
- concentration in supernatant after neutralization ([5]; pH 6.0, Pectin 100 μg/ml): 550 ng/mL
- concentration in supernatant after neutralization ([5]; pH 6.0, Pectin 1000 μg/ml): 2590 ng/mL
- concentration in supernatant after neutralization [5, 9]: 240 ng/mL
- concentration in supernatant after neutralization [5, 10]: 5150 ng/mL
- concentration in supernatant after neutralization ([5]; pH 6.0, additive None): 190 ng/mL

SMILES: CC[C@@]12C=CCN3CC[C@]4(C(=C(C(=O)OC)C1)Nc1cc5c(cc14)[C@H]1[C@@H](O5)[C@H](O)[C@]4(CC)CC(C(=O)OC)=C5Nc6c(cc(O)c(OC)c6OC)[C@@]56CCN1[C@H]46)[C@H]32 (stereo in doubt) [Conophyllidine, conophyllidine]
- blood concentration ([1]; Crude extract I oral, rats (animals 3, 4), 0.5 h): 65 ng/mL
- blood concentration ([1]; Crude extract I oral, rats (animals 3, 4), 1 h): 62 ng/mL
- blood concentration ([1]; Crude extract I oral, rats (animals 3, 4), 2 h): 32 ng/mL
- blood concentration ([1]; Crude extract I oral, rats (animals 3, 4), 4 h): 25 ng/mL
- blood concentration ([1]; Crude extract I oral, rats (animals 3, 4), 8 h): 13 ng/mL
- blood concentration ([1]; Crude extract I oral, rats (animals 3, 4), 24 h): 9 ng/mL
- concentration at 0.5 h ([1]; male, Crj:CD(SD) IGS, rat, in vivo, po, 0.05 g/kg, Crude extract I oral, rats (animals 3, 4), 0.5 h, read-out: blood concentration): 54 ng/mL
- concentration at 1 h ([1]; male, Crj:CD(SD) IGS, rat, in vivo, po, 0.05 g/kg, Crude extract I oral, rats (animals 3, 4), 1 h, read-out: blood concentration): 61 ng/mL
- concentration at 2 h ([1]; male, Crj:CD(SD) IGS, rat, in vivo, po, 0.05 g/kg, Crude extract I oral, rats (animals 3, 4), 2 h): 40 ng/mL
- concentration at 4 h ([1]; male, Crj:CD(SD) IGS, rat, in vivo, po, 0.05 g/kg, Crude extract I oral, rats (animals 3, 4), 4 h): 36 ng/mL
- concentration at 8 h ([1]; male, Crj:CD(SD) IGS, rat, in vivo, po, 0.05 g/kg, Crude extract I oral, rats (animals 3, 4), 8 h): 24 ng/mL
- concentration at 24 h ([1]; male, Crj:CD(SD) IGS, rat, in vivo, po, 0.05 g/kg, Crude extract I oral, rats (animals 3, 4), 24 h, read-out: blood concentration): 13 ng/mL
- concentration in supernatant ([6]; 10 mg Crude extract I in 1 ml 1% SDS): 2970 ng/mL
- concentration in supernatant ([6]; 10 mg Crude extract I in 1 ml Distilled water): 680 ng/mL
- blood concentration ([4]; Dried pulverized leaves oral, healthy rats (animals 3, 4), 6 h): 54 ng/mL
- blood concentration ([4]; Dried pulverized leaves oral, healthy rats (animals 3, 4), 12 h): 13 ng/mL
- blood concentration ([4]; Dried pulverized leaves oral, healthy rats (animals 3, 4), 24 h): 2 ng/mL
- time at which blood concentration reached its maximum ([4]; acetic acid extract oral, rats): 1.5 h
- concentration at 6 h ([4]; male, Crj:CD (SD) IGS, rat, in vivo, po, 0.5 g/kg, Dried pulverized leaves oral, healthy rats (animals 3, 4), 6 h): 28 ng/mL
- concentration at 12 h ([4]; male, Crj:CD (SD) IGS, rat, in vivo, po, 0.5 g/kg, Dried pulverized leaves oral, healthy rats (animals 3, 4), 12 h): 8 ng/mL
- concentration at 24 h ([4]; male, Crj:CD (SD) IGS, rat, in vivo, po, 0.5 g/kg, Dried pulverized leaves oral, healthy rats (animals 3, 4), 24 h): 1 ng/mL
- storing stability ([7]; 4° C., not shielded from light): gradually decreased (degraded)
- storing stability ([7]; −30, 4, 30, 50° C., shielded from light): very stable
- concentration in solution [5]: 16080 ng/mL
- concentration in supernatant after neutralization ([5]; pH 6.0, Pectin 10 μg/ml): 130 ng/mL
- concentration in supernatant after neutralization ([5]; pH 6.0, Pectin 100 μg/ml): 570 ng/mL
- concentration in supernatant after neutralization ([5]; pH 6.0, Pectin 1000 μg/ml): 2740 ng/mL
- concentration in supernatant after neutralization [5, 9]: 170 ng/mL
- concentration in supernatant after neutralization [5, 10]: 6990 ng/mL
- concentration in supernatant after neutralization ([5]; pH 6.0, additive None): 160 ng/mL

Reference: patent publication US8178135B2, “Aqueous solution of conophylline and/or conophyllidine” (Keio University, priority 2006, dated 2012)
